Experimental data reported in ChEMBL document CHEMBL1149655, “Non-steroidal glucocorticoid agonists: the discovery of aryl pyrazoles as A-ring mimetics” (Bioorg Med Chem Lett, 2007).
Several values for one entry are separate records, joined by “and”; a condition that tells them apart may be missing. Identical values can stand only once.

Assays:
[1] = target: T1, Glucocorticoid receptor (Homo sapiens, UniProt P04150)
T1 sequence (P04150 whole entry): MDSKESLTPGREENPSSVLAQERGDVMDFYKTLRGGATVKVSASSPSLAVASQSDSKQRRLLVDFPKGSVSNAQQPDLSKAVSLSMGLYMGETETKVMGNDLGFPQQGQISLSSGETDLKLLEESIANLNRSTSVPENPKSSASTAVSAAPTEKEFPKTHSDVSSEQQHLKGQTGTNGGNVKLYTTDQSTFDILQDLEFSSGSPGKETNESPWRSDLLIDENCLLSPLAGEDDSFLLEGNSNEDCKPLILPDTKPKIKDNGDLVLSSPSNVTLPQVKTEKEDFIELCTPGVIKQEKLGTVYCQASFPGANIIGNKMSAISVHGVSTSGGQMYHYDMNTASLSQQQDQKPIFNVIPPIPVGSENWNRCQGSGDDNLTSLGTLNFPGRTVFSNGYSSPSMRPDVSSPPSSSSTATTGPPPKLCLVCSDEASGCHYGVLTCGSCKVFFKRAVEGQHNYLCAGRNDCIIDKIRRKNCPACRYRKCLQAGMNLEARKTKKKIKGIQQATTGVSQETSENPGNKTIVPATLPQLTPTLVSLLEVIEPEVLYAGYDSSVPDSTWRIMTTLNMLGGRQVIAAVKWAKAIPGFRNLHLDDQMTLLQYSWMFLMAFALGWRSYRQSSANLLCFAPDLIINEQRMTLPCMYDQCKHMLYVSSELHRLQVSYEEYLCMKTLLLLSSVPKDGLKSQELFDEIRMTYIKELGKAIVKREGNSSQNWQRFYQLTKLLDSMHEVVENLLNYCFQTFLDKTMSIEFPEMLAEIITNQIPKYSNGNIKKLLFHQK

[2] = target: T1, Glucocorticoid receptor; remark: listed apart in the source
Description: Agonist activity at glucocorticoid receptor in human A549 cells by NF-kappaB transrepression assay

[3] = target: T1, Glucocorticoid receptor; remark: listed apart in the source
Description: (§1) Binding affinity to glucocorticoid receptor

[4] = target: T1, Glucocorticoid receptor; experiment: Agonist activity at glucocorticoid receptor in human A549 cells by MMTV transactivation assay; format: functional, cell-based
[5] = target: T2, Androgen receptor (Homo sapiens, UniProt P10275); experiment: Binding affinity to androgen receptor
T2 sequence (P10275 whole entry): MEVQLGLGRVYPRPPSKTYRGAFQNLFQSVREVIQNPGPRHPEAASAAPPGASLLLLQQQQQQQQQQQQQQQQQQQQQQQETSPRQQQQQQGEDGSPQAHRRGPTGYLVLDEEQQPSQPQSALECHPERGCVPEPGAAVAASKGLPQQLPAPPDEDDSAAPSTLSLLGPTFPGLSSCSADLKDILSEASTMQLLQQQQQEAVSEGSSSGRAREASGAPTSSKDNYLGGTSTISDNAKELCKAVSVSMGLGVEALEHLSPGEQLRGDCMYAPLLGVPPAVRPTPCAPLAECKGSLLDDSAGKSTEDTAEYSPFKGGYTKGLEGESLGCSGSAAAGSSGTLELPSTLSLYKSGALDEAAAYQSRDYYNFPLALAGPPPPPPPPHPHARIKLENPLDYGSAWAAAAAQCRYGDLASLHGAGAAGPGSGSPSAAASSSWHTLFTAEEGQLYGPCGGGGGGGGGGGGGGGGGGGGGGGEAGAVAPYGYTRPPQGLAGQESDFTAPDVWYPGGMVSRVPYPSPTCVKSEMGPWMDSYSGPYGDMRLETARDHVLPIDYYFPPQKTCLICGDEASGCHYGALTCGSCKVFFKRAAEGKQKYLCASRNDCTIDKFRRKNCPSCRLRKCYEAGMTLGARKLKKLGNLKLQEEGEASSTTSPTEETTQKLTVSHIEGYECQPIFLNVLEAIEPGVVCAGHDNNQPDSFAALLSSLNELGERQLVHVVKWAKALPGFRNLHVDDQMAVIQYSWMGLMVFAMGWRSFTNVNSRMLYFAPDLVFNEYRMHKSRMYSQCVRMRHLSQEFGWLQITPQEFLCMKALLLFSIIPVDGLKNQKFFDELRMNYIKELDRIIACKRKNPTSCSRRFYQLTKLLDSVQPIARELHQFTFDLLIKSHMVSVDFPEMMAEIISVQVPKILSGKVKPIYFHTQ

[6] = target: T3, Progesterone receptor (Homo sapiens, UniProt P06401); experiment: Binding affinity to progesterone receptor
T3 sequence (P06401 whole entry): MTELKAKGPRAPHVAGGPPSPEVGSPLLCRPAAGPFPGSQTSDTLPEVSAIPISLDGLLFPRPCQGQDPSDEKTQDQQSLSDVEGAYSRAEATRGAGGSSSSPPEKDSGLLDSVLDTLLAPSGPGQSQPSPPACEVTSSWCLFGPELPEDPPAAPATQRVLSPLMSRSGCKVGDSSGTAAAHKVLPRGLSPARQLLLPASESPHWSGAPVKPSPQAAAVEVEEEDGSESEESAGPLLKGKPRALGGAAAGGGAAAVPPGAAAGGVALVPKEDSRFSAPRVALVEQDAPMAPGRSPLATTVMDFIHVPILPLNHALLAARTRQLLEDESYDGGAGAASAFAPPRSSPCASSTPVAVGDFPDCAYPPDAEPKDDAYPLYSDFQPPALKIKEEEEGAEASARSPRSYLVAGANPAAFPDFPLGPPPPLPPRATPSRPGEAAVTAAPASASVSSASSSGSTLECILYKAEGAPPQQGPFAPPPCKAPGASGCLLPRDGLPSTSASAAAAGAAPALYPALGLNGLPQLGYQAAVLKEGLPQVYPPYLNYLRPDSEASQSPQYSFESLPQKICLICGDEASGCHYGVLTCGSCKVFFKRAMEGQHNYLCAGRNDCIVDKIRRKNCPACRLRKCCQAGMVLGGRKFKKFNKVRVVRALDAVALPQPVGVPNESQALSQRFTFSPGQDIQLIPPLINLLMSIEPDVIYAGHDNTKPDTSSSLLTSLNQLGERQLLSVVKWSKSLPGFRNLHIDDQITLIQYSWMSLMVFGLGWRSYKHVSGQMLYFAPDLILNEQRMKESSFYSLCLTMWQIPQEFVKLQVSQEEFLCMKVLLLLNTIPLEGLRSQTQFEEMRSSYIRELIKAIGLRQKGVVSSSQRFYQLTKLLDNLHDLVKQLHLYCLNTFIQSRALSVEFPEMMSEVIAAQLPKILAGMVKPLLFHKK

[7] = target: T1, Glucocorticoid receptor; remark: listed apart in the source
Description: as §1

Structure (SMILES)	IC50 [1] [nM]	IC50 [2] [nM]	IC50 [3]	EC50 [4] [nM]	IC50 [5] [nM]	IC50 [6] [nM]	Log IC50 [7]
Cc1c(S(=O)(=O)NCC(O)(CC2(C)CCCc3ccccc32)C(F)(F)F)cnn1-c1ccccc1 (stereo in doubt; 17D1)	–	–	158 nM	–	–	–	–
CCC1(CC(O)(CNC(=O)c2cnn(-c3ccc(F)cc3)c2N)C(F)(F)F)CCCc2ccccc21 (stereo in doubt; 21D1E1)	–	3.63	20 nM	7.76	–	–	–
CCC1(CC(O)(CNC(=O)c2cnn(-c3ccc(F)cc3F)c2N)C(F)(F)F)CCCc2ccccc21 (stereo in doubt; 22D1E2)	–	4.47	4.68 nM	12.3	–	–	–
Cc1c(S(=O)(=O)NCC(O)(CC2(C)CCCc3ccccc32)C(F)(F)F)cnn1-c1ccccc1 (stereo in doubt; 17D2E2)	309	> 1000	30.2 nM	> 1000	–	–	–
CCC1(CC(O)(CNC(=O)c2cnn(-c3ccccc3)c2N)C(F)(F)F)CCCc2ccccc21 (configuration not stated)	–	1.66	7.41 nM	5.62	–	–	–
COc1ccc(F)cc1C(C)(C)C[C@](O)(CNC(=O)c1cnn(-c2ccc(F)cc2)c1N)C(F)(F)F	> 1000	–	6.76 nM and 5.5 nM	–	> 1000	> 1000	–
CCC1(CC(O)(CNC(=O)c2cnn(-c3ccc(F)cc3)c2N)C(F)(F)F)CCCc2ccccc21 (stereo in doubt; 21D1E2)	–	3.02	9.77 nM	10.7	–	–	–
Cc1c(S(=O)(=O)NCC(O)(CC2(C)CCCc3ccccc32)C(F)(F)F)cnn1-c1ccccc1 (stereo in doubt; 17D2E1)	–	–	51.3 nM	–	–	–	–

Further lines, results first:

IC50 [1] [nM]	IC50 [2] [nM]	IC50 [3]	EC50 [4] [nM]	IC50 [5] [nM]	IC50 [6] [nM]	Log IC50 [7]	Structure (SMILES)
603	83.2	7.59 nM	–	–	–	–	Cc1c(C(=O)NCC(O)(CC2(C)CCCc3ccccc32)C(F)(F)F)cnn1-c1ccccc1 (stereo in doubt; 18D1)
275	8.51	9.55 nM	95.5	–	–	–	Nc1c(C(=O)NCC(O)(CC2(C3CCCC3)CCCc3ccccc32)C(F)(F)F)cnn1-c1ccc(F)cc1F (stereo in doubt; 23D1E1)
–	–	34.7 nM	–	–	–	–	Cc1c(S(=O)(=O)NCC(O)(CC2(C)CCCc3ccccc32)C(F)(F)F)cnn1-c1ccccc1 (stereo in doubt; 17D2)
–	17	5.75 nM	182	–	–	–	CC1(CC(O)(CNC(=O)c2cnn(-c3ccccc3)c2N)C(F)(F)F)CCCc2ccccc21 (stereo in doubt; 19D1E1)
–	3.72	4.27 nM	15.1	> 1000	> 1000	–	Nc1c(C(=O)NCC(O)(CC2(c3cc(F)ccc3Cl)CCC2)C(F)(F)F)cnn1-c1ccccc1 (stereo in doubt; 24E1)
–	> 1000	40.7 nM	–	–	–	–	CCn1nc(C)c(Br)c1C(=O)NCC(O)(CC1(C)CCCc2ccccc21)C(F)(F)F (configuration not stated)
933	49	9.33 nM	> 1000	–	–	–	Cc1c(C(=O)NCC(O)(CC2(C)CCCc3ccccc32)C(F)(F)F)cnn1-c1ccccc1 (stereo in doubt; 18D1E1)
–	30.2	20.9 nM	151	–	–	–	Nc1c(C(=O)NCC(O)(CC2(C3CCCC3)CCCc3ccccc32)C(F)(F)F)cnn1-c1ccc(F)cc1F (stereo in doubt; 23D1E2)
> 1000	6.46	–	14.5	–	–	-8.33	CCC1(CC(O)(CNC(=O)c2cnn(-c3ccc(F)cc3F)c2N)C(F)(F)F)CCCc2ccccc21 (stereo in doubt; 22D1E1)
–	5.89	5.13 nM	18.2	–	–	–	CC1(CC(O)(CNC(=O)c2cnn(-c3ccccc3)c2N)C(F)(F)F)CCCc2ccccc21 (stereo in doubt; 19D1E2)
–	13.2	4.79 nM	17.4	–	–	–	Nc1c(C(=O)NCC(O)(CC2(c3cc(F)ccc3Cl)CCC2)C(F)(F)F)cnn1-c1ccccc1 (stereo in doubt; 24E2)
